Data as given in patent publication US7704723B2, “Isolation and characterization of novel clostridial species” (The Board of Regents For Oklahoma State University, priority 2006, dated 2010).
Marks after values point to notes of the source that are not given here.

Key:
[1] = tested on: Clostridium ljungdahlii strain PETC; assay: Growth of reference strain PETC on substrates as sole carbon and energy sources; format: cell-based; settings: for Substrate utilization, C. ljungdahlii: strain PETC, growth on substrate as sole carbon and energy source, final OD600
Description: Organisms. Clostridium ljundahlii strain PETC was obtained from a fructose stock culture maintained by Dr. Ralph S. Tanner and was used as the reference control strain. Strain P11 was obtained from an anaerobic enrichment inoculated with fresh water sediment from the Duck Pond at the University of Oklahoma by a procedure described previously (Bryant, 1972) under an atmosphere of CO:N2:CO2 (75:15:10) and an initial pH of 6.0. The carbon monoxide oxidizing clostridium described within was named Clostridium ragsdalei. This bacterium was designated strain P11 and deposited with the American Type Culture Collection as strain ATCC BAA-622.
(§1) Except for the deletion of NaHCO3 and an initial pH 6.3, growth on organic and gaseous substrates was performed as previously described (Tanner et. al., 1993). Resazurin (1 mg/L) was used as the redox indicator. Purified agar was added to the medium at a concentration of 2% for colony morphology description (Table 5). Heat labile substrates were filter sterilized (not autoclaved) and added from sterile stock solutions to a final concentration of 5 g/L before inoculation. The optimum temperature and pH (initial pH) was determined in medium containing fructose as the substrate. For determination of the optimum pH, media was buffered with HOMOPIPES (homopiperazine-N,N′-bis-2-[ethanesulfonic acid] (Research Organics, Cleveland, Ohio), MES (2-[N-morpholino]ethanesulfonic acid), or TES (N-tris [hydroxymethyl]methyl-2-aminoethanesulfonic acid) at (1.0 g/L). A 0.1 ml (˜2%) inoculum of fructose-grown cells was used to initiate growth. All media components used in these experiments were obtained from Sigma unless otherwise noted (Sigma Chemical Co., St. Louis, Mo.).
(§2) Analytical methods. […] For the substrate malate, utilization was analyzed by HPLC (“high-performance liquid chromatography”) equipped with a UV detector set at 214 nm using a Alltech, Prevail Organic Acid column (4.6×150 mm, 5 μm; Alltech, Deerfield, Mich.) with a mobile phase of 25 mM KH2PO4, pH 2.5 and 10% (v/v) methanol.

[2] = tested on: Clostridium ragsdalei strain P11; assay: Growth of strain P11 on organic and gaseous substrates as sole carbon and energy sources; format: cell-based; settings: for Growth with substrate: Clostridium ragsdalei, malate and formate examined at pH 5.0-6.5; for Substrate utilization, C. ragsdalei: strain P11, growth on substrate as sole carbon and energy source, final OD600
Method: as §1, §2

Row | Compound | Substrate utilization, C. ljungdahlii [1] | Growth with substrate [2] | Substrate utilization, C. ragsdalei [2] | Growth with malate as the sole carbon source after adaptation ([1]; after incubation of about thirty days, pH 5.0-6.5) | Doubling time ([2]; strain P11 grown with the substrate under optimal conditions) [h⁻¹]
1 | CCCO [1-Propanol] | +^† (positive (indicates a final OD600 of greater than or equal to 0.1.)) | chemoorganotrophic growth was observed | + (positive (indicates a final OD600 of greater than or equal to 0.1.)) |  | 
2 | C[C@H](N)C(=O)O [Alanine] |  | chemoorganotrophic growth was observed |  |  | 
3 | N#C[C@H](O[C@@H]1O[C@H](CO[C@@H]2O[C@H](CO)[C@@H](O)[C@H](O)[C@H]2O)[C@@H](O)[C@H](O)[C@H]1O)c1ccccc1 [Amygdalin] | − |  | − |  | 
4 | O=C[C@@H](O)[C@H](O)[C@H](O)CO [Arabinose] |  |  | − |  | 
5 | N=C(N)NCCC[C@H](N)C(=O)O [Arginine] |  |  | − |  | 
6 | C[N+](C)(C)CC(=O)O [Betaine] | − |  | − |  | 
7 | OC[C@H]1O[C@@H](O[C@H]2[C@H](O)[C@@H](O)[C@H](O)O[C@@H]2CO)[C@H](O)[C@@H](O)[C@@H]1O [Cellibiose] | − |  | − |  | 
8 | O=C[C@@H](O)[C@H](O)CO [D (−) Threose] |  | chemoorganotrophic growth was observed |  |  | 
9 | O=C[C@H](O)[C@H](O)CO [Erythrose] | − |  | − |  | 
10 | O=C(CO)[C@@H](O)[C@H](O)[C@H](O)CO [Fructose] |  | chemoorganotrophic growth was observed |  |  | 
11 | C[C@H](O)[C@@H](O)[C@@H](O)[C@H](O)C=O [Fucose] | − |  | − |  | 
12 | O=C[C@H](O)[C@@H](O)[C@@H](O)[C@H](O)CO [Galactose] | − |  | − |  | 
13 | O=C(O)[C@H](O)[C@@H](O)[C@H](O)[C@H](O)CO [Gluconic acid] |  |  | − |  | 
14 | N[C@@H](CCC(=O)O)C(=O)O [Glutamate] | +^† (positive (indicates a final OD600 of greater than or equal to 0.1.)) | chemoorganotrophic growth was observed | + (positive (indicates a final OD600 of greater than or equal to 0.1.)) |  | 
15 | NC(=O)CC[C@H](N)C(=O)O [Glutamine] | − |  | − |  | 
16 | OCC(O)CO [Glycerol] | − |  | − |  | 
17 | O=C(O)CO [Glycolic acid] | − |  | − |  | 
18 | N[C@@H](Cc1c[nH]cn1)C(=O)O [Histidine] |  |  | − |  | 
19 | O[C@H]1[C@H](O)[C@@H](O)[C@H](O)[C@@H](O)[C@H]1O [Inositol] | − |  | − |  | 
20 | CC(C)O [Iso-propanol] | − |  | − |  | 
21 | O=C[C@H](O)[C@@H](O)CO [L (+) Threose] | − |  | − |  | 
22 | OC[C@H]1O[C@@H](O[C@H]2[C@H](O)[C@@H](O)C(O)O[C@@H]2CO)[C@H](O)[C@@H](O)[C@H]1O (stereo partly shown) [Lactose] | − |  | − |  | 
23 | O=C(O)/C=C\C(=O)O [Maleic acid] | − |  | − |  | 
24 | O=C(O)CC(O)C(=O)O (stereo not shown) [Malic acid] | − | did not initially support growth | − | able to grow | 
25 | OC[C@H]1O[C@H](O[C@H]2[C@H](O)[C@@H](O)[C@H](O)O[C@@H]2CO)[C@H](O)[C@@H](O)[C@@H]1O [Maltose] | − |  | − |  | 
26 | OC[C@@H](O)[C@@H](O)[C@H](O)[C@H](O)CO [Mannitol] | − |  | − |  | 

Row | Compound | Substrate utilization, C. ljungdahlii [1] | Growth with substrate [2] | Substrate utilization, C. ragsdalei [2] | Growth with malate as the sole carbon source after adaptation ([1]; after incubation of about thirty days, pH 5.0-6.5) | Doubling time ([2]; strain P11 grown with the substrate under optimal conditions) [h⁻¹]
27 | OC[C@H]1O[C@H](OCC2O[C@@H](O)[C@H](O)[C@@H](O)[C@@H]2O)[C@H](O)[C@@H](O)[C@H]1O (stereo partly shown) [Melibiose] | − |  | − |  | 
28 | OC[C@H]1O[C@@](CO)(O[C@H]2O[C@H](CO)[C@@H](O)[C@H](O)[C@H]2O)[C@@H](O[C@H]2O[C@H](CO)[C@@H](O)[C@H](O)[C@H]2O)[C@@H]1O [Melizitose] | − |  | − |  | 
29 | CO [Methanol] | − |  | − |  | 
30 | CC(=O)[O-].[Na+] [Na-Acetate] | − |  | − |  | 
31 | O=C([O-])CC(O)(CC(=O)[O-])C(=O)[O-].[Na+].[Na+].[Na+] [Na-Citrate] | +* (positive (indicates a final OD600 of greater than or equal to 0.1.)) |  | − |  | 
32 | O=C[O-].[Na+] [Na-Formate] | − | did not initially support growth | − |  | 
33 | O=C([O-])/C=C/C(=O)[O-].[Na+].[Na+] [Na-Fumarate] |  |  | − |  | 
34 | CC(O)C(=O)[O-].[Na+] (stereo not shown) [Na-Lactate] | − |  | − |  | 
35 | CCC(=O)[O-].[Na+] [Na-Propionate] | − |  | − |  | 
36 | CC(=O)C(=O)O [Na-Pyruvate] |  | chemoorganotrophic growth was observed |  |  | 
37 | O=C([O-])CCC(=O)[O-].[Na+].[Na+] [Na-Succinate] | − |  | − |  | 
38 | C[C@H](O)[C@H](O)[C@@H](O)[C@@H](O)C=O [Rhamnose] |  |  | − |  | 
39 | OCc1ccccc1O[C@@H]1O[C@H](CO)[C@@H](O)[C@H](O)[C@H]1O [Salicin] | − |  | − |  | 
40 | N[C@@H](CO)C(=O)O [Serine] |  | chemoorganotrophic growth was observed |  |  | 
41 | OC[C@@H](O)[C@@H](O)[C@H](O)[C@@H](O)CO [Sorbitol] | − |  | − |  | 
42 | OC[C@H]1O[C@@](CO)(O[C@H]2O[C@H](CO)[C@@H](O)[C@H](O)[C@H]2O)[C@@H](O)[C@@H]1O [Sucrose] |  | chemoorganotrophic growth was observed |  |  | 
43 | OC[C@H]1O[C@H](O[C@H]2O[C@H](CO)[C@@H](O)[C@H](O)[C@H]2O)[C@H](O)[C@@H](O)[C@@H]1O [Trehalose] | − |  | − |  | 
44 | O=C(CO)[C@@H](O[C@H]1O[C@H](CO)[C@@H](O)[C@H](O)[C@H]1O)[C@H](O)[C@H](O)CO [Turanose] | − |  | − |  | 
45 | O=C[C@H](O)[C@@H](O)[C@H](O)CO [Xylose] |  | chemoorganotrophic growth was observed |  |  | 0.220
46 | O=C(O)CCC(=O)C(=O)O [alpha-ketoglutarate] | + (positive (indicates a final OD600 of greater than or equal to 0.1.)) |  | − |  | 
47 | Cellulose | − |  | − |  | 
48 | Glycogen | − |  | − |  | 
49 | Inulin | − |  | − |  | 
50 | Pectin | − |  | − |  | 
51 | Starch | − |  | − |  | 
52 | Trimethoxybenzoic acid | − |  | − |  | 
